Measured values as given in PMC10818749, “Toxicity Studies of Cardiac-Targeting Peptide Reveal a Robust Safety Profile” (Pharmaceutics, 2024).
Ends that are not written are not given here.

Assays:
ADRB1 = target: T1, ADRB1 (Homo sapiens, UniProt P08588); experiment: ADRB1 GPCR cAMP modulation assay; assay type: cell-based; conditions: compared to the controls
T1 construct: host or cells: cAMP Hunter cell line
Experimental: GPCR cAMP Modulation Assays: cAMP Hunter cell lines were grown, plated, and subjected to Eurofins’ DiscoverX HitHunter cAMP XS+ assay. Gs agonist activity, Gi agonist activity, and antagonist activity-induced assays were read using chemiluminescent signal detection. The percentage of activity was calculated for Gs and Gi agonist assays, and the percentage of inhibition was calculated for Gs antagonist assays. […]
cAMP Second ary Messenger Assay pound results in the release of calcium from intracellular stores and DiscoverX has developed a panel of cell lines stably expressing non- an increase in dye fluorescence that is measured in real-time. tagged GPCRs that endogenously signal through cAMP. […]
The enzyme is split into two complementary portions: Enzyme Ac-ceptor (EA) and Enzyme Donor (ED). […] Active enzyme can then convert a chemilumines-cent substrate, generating an output signal detectable on a standard The NHR is tagged with the ProLink™ (PK) component of our EFC microplate reader. assay system, and the SRCP domain is fused to the Enzyme Ac-ceptor component (EA) expressed in the nucleus. […]

CAV1.2 = CAV1.2 (Homo sapiens, UniProt Q13936); experiment: in vitro; assay type: cell-based; conditions: blocker; FLIPR Tetra; up to 30 µM; read-out: RC50 (the source's name)
Experimental: Ion Channel Assays: Cell lines were grown, plated, and loaded with 1× loading buffer containing 1× dye and 2.5 mM freshly prepared probenecid. Assays were performed, and activity was measured using a FLIPR Tetra. Percent of activation and percent of inhibition were calculated to determine agonist and antagonist activity, respectively. […]
The KINOMEscan screening platform employs a novel and propri- Membrane Potential Assay etary active site-directed competition binding assay to quantitatively The FLIPR® Membrane Potential Assay Kit is used which utilizes a pro-measure interactions between test compounds and the kinases. prietary fluorescent indicator dye in combination with a quencher to This robust and reliable assay technology affords investigators the reflect real-time membrane potential changes associated with ion ability to extensively annotate compounds with accurate, precise channel activation and ion transporter proteins. […]
Compounds that bind the kinase active site and directly (sterically) be monitored within a single experiment. […]
a quantitative, precise and ultra-sensitive qPCR method that detects the receptor signals release of intracellular calcium, which results in the associated DNA label (D). In a similar manner, dissociation con- an increase of dye fluorescence. […]
Neurotransmitter Transporter Uptake Assay spectrophotometric, fluorometric, and luminescent readouts. […]

CAV1.2, sequence (Q13936 whole entry): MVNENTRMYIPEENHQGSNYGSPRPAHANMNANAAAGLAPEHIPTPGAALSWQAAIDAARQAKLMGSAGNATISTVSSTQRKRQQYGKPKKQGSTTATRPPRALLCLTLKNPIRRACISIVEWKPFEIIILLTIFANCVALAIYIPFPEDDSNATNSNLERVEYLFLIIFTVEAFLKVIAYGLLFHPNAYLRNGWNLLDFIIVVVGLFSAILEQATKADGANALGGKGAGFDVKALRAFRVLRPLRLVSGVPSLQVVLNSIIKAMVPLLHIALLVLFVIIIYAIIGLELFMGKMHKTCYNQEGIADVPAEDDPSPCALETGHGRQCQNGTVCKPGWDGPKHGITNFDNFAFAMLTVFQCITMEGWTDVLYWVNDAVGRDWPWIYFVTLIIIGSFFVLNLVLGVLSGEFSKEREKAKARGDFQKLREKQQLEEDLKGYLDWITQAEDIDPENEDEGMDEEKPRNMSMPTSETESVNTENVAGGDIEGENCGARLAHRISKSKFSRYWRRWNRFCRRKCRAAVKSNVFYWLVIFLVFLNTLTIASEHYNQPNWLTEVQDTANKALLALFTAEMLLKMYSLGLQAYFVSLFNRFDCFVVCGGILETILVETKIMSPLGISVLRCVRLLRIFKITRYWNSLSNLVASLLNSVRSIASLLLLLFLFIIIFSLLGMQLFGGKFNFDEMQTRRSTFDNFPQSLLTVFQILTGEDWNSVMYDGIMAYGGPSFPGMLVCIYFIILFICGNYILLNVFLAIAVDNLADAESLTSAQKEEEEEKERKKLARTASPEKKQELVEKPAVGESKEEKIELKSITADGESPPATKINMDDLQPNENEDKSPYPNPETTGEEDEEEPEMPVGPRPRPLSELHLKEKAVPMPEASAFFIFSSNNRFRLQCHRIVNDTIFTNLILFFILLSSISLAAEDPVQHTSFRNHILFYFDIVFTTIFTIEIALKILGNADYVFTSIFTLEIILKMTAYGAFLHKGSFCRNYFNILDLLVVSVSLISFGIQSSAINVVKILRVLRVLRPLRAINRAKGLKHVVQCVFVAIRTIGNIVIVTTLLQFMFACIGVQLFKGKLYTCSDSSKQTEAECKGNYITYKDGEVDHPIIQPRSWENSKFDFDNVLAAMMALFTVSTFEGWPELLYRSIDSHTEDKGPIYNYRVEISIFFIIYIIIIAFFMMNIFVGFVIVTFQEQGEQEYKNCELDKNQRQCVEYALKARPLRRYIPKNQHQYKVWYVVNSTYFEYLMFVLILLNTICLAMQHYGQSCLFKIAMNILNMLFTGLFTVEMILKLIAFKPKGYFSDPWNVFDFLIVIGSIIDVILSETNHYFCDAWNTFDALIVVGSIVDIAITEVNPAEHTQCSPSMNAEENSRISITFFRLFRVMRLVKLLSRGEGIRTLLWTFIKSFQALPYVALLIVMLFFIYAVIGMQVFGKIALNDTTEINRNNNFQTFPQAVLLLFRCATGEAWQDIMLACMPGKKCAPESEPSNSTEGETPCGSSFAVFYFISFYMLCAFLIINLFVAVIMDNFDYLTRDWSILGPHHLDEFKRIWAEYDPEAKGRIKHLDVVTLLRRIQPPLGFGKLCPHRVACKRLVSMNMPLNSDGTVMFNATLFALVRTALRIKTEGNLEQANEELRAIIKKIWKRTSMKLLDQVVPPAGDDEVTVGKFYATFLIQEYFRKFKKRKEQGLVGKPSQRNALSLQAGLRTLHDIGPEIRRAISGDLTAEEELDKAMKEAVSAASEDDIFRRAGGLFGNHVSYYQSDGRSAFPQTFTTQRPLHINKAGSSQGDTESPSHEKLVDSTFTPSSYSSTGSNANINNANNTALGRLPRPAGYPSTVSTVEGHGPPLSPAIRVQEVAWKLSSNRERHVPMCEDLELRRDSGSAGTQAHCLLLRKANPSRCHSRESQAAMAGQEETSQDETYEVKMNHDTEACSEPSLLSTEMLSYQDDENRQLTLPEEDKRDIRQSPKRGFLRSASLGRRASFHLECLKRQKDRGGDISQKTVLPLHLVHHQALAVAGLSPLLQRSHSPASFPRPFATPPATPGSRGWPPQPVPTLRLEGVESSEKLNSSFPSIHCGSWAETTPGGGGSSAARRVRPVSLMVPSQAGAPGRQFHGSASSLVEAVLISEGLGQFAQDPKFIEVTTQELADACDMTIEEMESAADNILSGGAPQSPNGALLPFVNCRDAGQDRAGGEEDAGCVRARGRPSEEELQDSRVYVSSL
CAV1.2, sequence (Q08289 whole entry partner): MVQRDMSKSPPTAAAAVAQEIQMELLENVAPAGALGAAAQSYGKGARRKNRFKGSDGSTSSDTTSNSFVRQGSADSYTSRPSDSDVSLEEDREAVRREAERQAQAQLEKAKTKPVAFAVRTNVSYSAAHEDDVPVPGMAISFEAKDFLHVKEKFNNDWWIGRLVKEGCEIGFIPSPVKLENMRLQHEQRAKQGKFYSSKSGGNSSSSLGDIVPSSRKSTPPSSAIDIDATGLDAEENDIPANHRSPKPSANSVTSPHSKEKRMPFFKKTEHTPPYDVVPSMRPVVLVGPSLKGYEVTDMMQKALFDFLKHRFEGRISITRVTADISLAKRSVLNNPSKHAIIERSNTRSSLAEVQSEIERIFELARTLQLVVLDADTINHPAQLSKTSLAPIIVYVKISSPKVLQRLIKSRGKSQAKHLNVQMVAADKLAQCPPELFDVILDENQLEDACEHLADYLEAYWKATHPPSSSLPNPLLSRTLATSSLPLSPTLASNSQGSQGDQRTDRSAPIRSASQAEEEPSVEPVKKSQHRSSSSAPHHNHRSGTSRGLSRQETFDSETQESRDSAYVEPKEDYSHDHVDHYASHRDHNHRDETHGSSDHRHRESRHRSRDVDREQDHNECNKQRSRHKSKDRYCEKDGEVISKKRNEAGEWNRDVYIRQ
CAV1.2, sequence (P54289 25-956 partner limits assumed): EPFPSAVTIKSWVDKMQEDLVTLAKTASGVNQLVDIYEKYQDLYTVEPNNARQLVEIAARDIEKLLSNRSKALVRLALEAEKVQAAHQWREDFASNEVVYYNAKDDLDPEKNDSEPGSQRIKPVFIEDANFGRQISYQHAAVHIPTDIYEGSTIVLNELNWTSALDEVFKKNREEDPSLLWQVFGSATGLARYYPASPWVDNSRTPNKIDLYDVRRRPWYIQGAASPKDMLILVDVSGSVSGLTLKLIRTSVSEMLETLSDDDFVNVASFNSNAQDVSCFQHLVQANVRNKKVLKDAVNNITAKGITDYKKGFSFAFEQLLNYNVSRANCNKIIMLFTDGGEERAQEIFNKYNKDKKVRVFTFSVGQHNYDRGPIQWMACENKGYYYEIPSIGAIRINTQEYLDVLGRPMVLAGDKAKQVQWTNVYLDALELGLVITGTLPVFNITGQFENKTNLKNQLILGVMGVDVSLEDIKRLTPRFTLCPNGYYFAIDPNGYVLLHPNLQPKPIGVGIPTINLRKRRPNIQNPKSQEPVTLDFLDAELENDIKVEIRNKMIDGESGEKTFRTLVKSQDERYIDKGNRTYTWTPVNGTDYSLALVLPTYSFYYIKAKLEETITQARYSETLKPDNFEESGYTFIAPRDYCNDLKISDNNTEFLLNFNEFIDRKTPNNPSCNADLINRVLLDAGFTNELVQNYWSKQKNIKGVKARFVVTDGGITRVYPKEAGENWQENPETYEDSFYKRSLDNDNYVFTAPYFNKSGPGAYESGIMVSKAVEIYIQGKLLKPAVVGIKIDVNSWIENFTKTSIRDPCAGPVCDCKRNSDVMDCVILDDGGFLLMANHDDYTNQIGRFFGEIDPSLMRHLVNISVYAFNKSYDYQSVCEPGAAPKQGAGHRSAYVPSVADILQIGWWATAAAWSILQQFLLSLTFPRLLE
CAV1.2, sequence (P54289 957-1103 partner limits assumed): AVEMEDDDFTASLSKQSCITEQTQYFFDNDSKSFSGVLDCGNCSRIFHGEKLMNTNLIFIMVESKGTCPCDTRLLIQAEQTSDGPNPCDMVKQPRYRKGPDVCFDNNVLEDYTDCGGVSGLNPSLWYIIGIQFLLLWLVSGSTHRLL
T1 sequence (P08588 whole entry): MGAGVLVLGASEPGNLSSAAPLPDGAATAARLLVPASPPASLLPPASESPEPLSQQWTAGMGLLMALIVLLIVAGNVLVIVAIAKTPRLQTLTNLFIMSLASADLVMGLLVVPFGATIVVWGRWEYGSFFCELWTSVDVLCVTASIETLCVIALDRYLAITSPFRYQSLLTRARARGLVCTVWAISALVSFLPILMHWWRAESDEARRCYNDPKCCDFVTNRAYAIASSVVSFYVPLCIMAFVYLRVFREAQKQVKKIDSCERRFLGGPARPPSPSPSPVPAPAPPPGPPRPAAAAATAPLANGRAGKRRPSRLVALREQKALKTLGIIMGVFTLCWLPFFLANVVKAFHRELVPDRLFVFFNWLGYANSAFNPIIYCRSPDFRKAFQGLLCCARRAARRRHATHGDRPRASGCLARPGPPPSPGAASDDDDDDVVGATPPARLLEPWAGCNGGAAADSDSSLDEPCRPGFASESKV

For APWHLSSQYSRT [CTP], the “agonist or antagonist action” value (ADRB1) was “no significant action as either an agonist or antagonist” and the IC50 (CAV1.2) was greater than 30 µM.
